# In the supplement of paper PMC9663587:
# Tests used:
# [1] = compound: CCN1CCN(Cc2ccc(Nc3ncc(F)c(-c4cc(F)c5nc(C)n(C(C)C)c5c4)n3)nc2)CC1; assay: increase in dead-cell fraction, 72 h; higher = more death;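 note: breast cancer cell lines in 384-well plates, stained with Hoechst plus LIVE/DEAD far red dye and imaged, cells above an LDR intensity threshold counted dead, Hoechst-negative corpses included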
# [2] = compound: T1, CN(C)C/C=C/C(=O)Nc1ccc(C(=O)Nc2cccc(Nc3ncc(Cl)c(-c4c[nH]c5ccccc45)n3)c2)cc1 [THZ1]; assay: as above
# [3] = compound: CN(C)C/C=C/C(=O)Nc1ccc(C(=O)N2CCC[C@@H](Nc3ncc(Cl)c(-c4c[nH]c5ccccc45)n3)C2)cc1 [THZ531]; assay: as above
# [4] = compound: T2, CCOc1cc2ncc(C#N)c(Nc3ccc(OCc4ccccn4)c(Cl)c3)c2cc1NC(=O)/C=C/CN(C)C [Neratinib/HKI272]; assay: as above
# [5] = compound: CCc1cnn2c(NCc3ccc[n+]([O-])c3)cc(N3CCCC[C@H]3CCO)nc12; assay: as above
# [6] = compound: CN(C)C(=O)c1cc2cnc(Nc3ccc(N4CCNCC4)cn3)nc2n1C1CCCC1 [LEE011/Ribociclib]; assay: as above
# [7] = compound: CC(=O)c1c(C)c2cnc(Nc3ccc(N4CCN(CCOCCOCCOCCNC(=O)COc5cccc6c5C(=O)N(C5CCC(=O)NC5=O)C6=O)CC4)cn3)nc2n(C2CCCC2)c1=O [BSJ-03-123]; assay: as above
# [8] = compound: CN1CC[C@H](c2c(O)cc(O)c3c(=O)cc(-c4ccccc4Cl)oc23)[C@H](O)C1 [Flavopiridol]; assay: as above
# [9] = compound: CC(=O)c1c(C)c2cnc(Nc3ccc(N4CCNCC4)cn3)nc2n(C2CCCC2)c1=O; assay: as above
# [10] = compound: C=CC(=O)Nc1ccc(C(=O)Nc2[nH]nc3c2CN(C(=O)N[C@H](CN(C)C)c2ccccc2)C3(C)C)cc1 [YKL-5-124]; assay: as above
# [11] = compound: T1, THZ1; assay: GR value, 72 h; higher = faster growth (1 = untreated, <0 = killing);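 note: breast cancer and non-malignant breast epithelial lines, nine half-log doses, viable cells counted by Hoechst and LIVE/DEAD dye imaging versus time-zero plates and DMSO controls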
# [12] = compound: T2, Neratinib/HKI272; assay: as above
cell line,measurement,setting,value
AU565,increase in dead-cell fraction,[1]; 0.001 µM,0.0076
same,increase in dead-cell fraction,[1]; 0.003162 µM,0.0065
same,increase in dead-cell fraction,[1]; 0.01 µM,0.0106
same,increase in dead-cell fraction,[1]; 0.03162 µM,0.0354
same,increase in dead-cell fraction,[1]; 0.1 µM,0.043
same,increase in dead-cell fraction,[1]; 0.3162 µM,0.0403
same,increase in dead-cell fraction,[1]; 1 µM,0.0369
same,increase in dead-cell fraction,[1]; 3.162 µM,0.0205
same,increase in dead-cell fraction,[1]; 10 µM,0.085
same,increase in dead-cell fraction,[2]; 0.0001 µM,-0.0048
same,increase in dead-cell fraction,[2]; 0.0003162 µM,-0.0064
same,increase in dead-cell fraction,[2]; 0.001 µM,-0.0098
same,increase in dead-cell fraction,[2]; 0.003162 µM,-0.0018
same,increase in dead-cell fraction,[2]; 0.01 µM,0.0038
same,increase in dead-cell fraction,[2]; 0.03162 µM,0.0873
same,increase in dead-cell fraction,[2]; 0.1 µM,0.262
same,increase in dead-cell fraction,[2]; 0.3162 µM,0.48
same,increase in dead-cell fraction,[2]; 1 µM,0.579
same,increase in dead-cell fraction,[3]; 0.0001 µM,0.0002
same,increase in dead-cell fraction,[3]; 0.0003162 µM,0.0023
same,increase in dead-cell fraction,[3]; 0.001 µM,-0.0009
same,increase in dead-cell fraction,[3]; 0.003162 µM,0.0019
same,increase in dead-cell fraction,[3]; 0.01 µM,-0.005
same,increase in dead-cell fraction,[3]; 0.03162 µM,0.0372
same,increase in dead-cell fraction,[3]; 0.1 µM,0.133
same,increase in dead-cell fraction,[3]; 0.3162 µM,0.297
same,increase in dead-cell fraction,[3]; 1 µM,0.488
same,increase in dead-cell fraction,[4]; 0.0003162 µM,0.0048
same,increase in dead-cell fraction,[4]; 0.001 µM,0.0173
same,increase in dead-cell fraction,[4]; 0.003162 µM,0.0398
same,increase in dead-cell fraction,[4]; 0.01 µM,0.0858
same,increase in dead-cell fraction,[4]; 0.03162 µM,0.16
same,increase in dead-cell fraction,[4]; 0.1 µM,0.195
same,increase in dead-cell fraction,[4]; 0.3162 µM,0.232
same,increase in dead-cell fraction,[4]; 1 µM,0.206
same,increase in dead-cell fraction,[4]; 3.162 µM,0.321
same,increase in dead-cell fraction,[5]; 0.0001 µM,0.0029
same,increase in dead-cell fraction,[5]; 0.0003162 µM,0.0001
same,increase in dead-cell fraction,[5]; 0.001 µM,0.0027
same,increase in dead-cell fraction,[5]; 0.003162 µM,0.0033
same,increase in dead-cell fraction,[5]; 0.01 µM,0.0437
same,increase in dead-cell fraction,[5]; 0.03162 µM,0.247
same,increase in dead-cell fraction,[5]; 0.1 µM,0.346
same,increase in dead-cell fraction,[5]; 0.3162 µM,0.315
same,increase in dead-cell fraction,[5]; 1 µM,0.345
same,increase in dead-cell fraction,[6]; 0.001 µM,-0.0067
same,increase in dead-cell fraction,[6]; 0.003162 µM,-0.0027
same,increase in dead-cell fraction,[6]; 0.01 µM,0.0258
same,increase in dead-cell fraction,[6]; 0.03162 µM,0.0105
same,increase in dead-cell fraction,[6]; 0.1 µM,0.0143
same,increase in dead-cell fraction,[6]; 0.3162 µM,0.0331
same,increase in dead-cell fraction,[6]; 1 µM,0.0469
same,increase in dead-cell fraction,[6]; 3.162 µM,0.0463
same,increase in dead-cell fraction,[6]; 10 µM,0.0439
same,increase in dead-cell fraction,[7]; 0.001 µM,0.0012
same,increase in dead-cell fraction,[7]; 0.003162 µM,-0.0066
same,increase in dead-cell fraction,[7]; 0.01 µM,0.0069
same,increase in dead-cell fraction,[7]; 0.03162 µM,-0.0059
same,increase in dead-cell fraction,[7]; 0.1 µM,0.0078
same,increase in dead-cell fraction,[7]; 0.3162 µM,0.0057
same,increase in dead-cell fraction,[7]; 1 µM,0.0399
same,increase in dead-cell fraction,[7]; 3.162 µM,0.0336
same,increase in dead-cell fraction,[7]; 10 µM,0.306
same,increase in dead-cell fraction,[8]; 0.0001 µM,-0.0146
same,increase in dead-cell fraction,[8]; 0.0003162 µM,-0.004
same,increase in dead-cell fraction,[8]; 0.001 µM,0.0124
same,increase in dead-cell fraction,[8]; 0.003162 µM,0.0024
same,increase in dead-cell fraction,[8]; 0.01 µM,-0.0083
same,increase in dead-cell fraction,[8]; 0.03162 µM,0.0121
same,increase in dead-cell fraction,[8]; 0.1 µM,0.0266
same,increase in dead-cell fraction,[8]; 0.3162 µM,0.262
same,increase in dead-cell fraction,[8]; 1 µM,0.602
same,increase in dead-cell fraction,[9]; 0.0003162 µM,-0.0036
same,increase in dead-cell fraction,[9]; 0.001 µM,-0.0011
same,increase in dead-cell fraction,[9]; 0.003162 µM,0.0019
same,increase in dead-cell fraction,[9]; 0.01 µM,-0.0007
same,increase in dead-cell fraction,[9]; 0.03162 µM,0.008
same,increase in dead-cell fraction,[9]; 0.1 µM,0.0139
same,increase in dead-cell fraction,[9]; 0.3162 µM,0.0209
same,increase in dead-cell fraction,[9]; 1 µM,0.0255
same,increase in dead-cell fraction,[9]; 3.162 µM,0.0446
same,increase in dead-cell fraction,[10]; 0.001 µM,0.0305
same,increase in dead-cell fraction,[10]; 0.003162 µM,0.0489
same,increase in dead-cell fraction,[10]; 0.01 µM,0.0994
same,increase in dead-cell fraction,[10]; 0.03162 µM,0.0877
same,increase in dead-cell fraction,[10]; 0.1 µM,0.0813
same,increase in dead-cell fraction,[10]; 0.3162 µM,0.114
same,increase in dead-cell fraction,[10]; 1 µM,0.113
same,increase in dead-cell fraction,[10]; 3.162 µM,0.215
same,increase in dead-cell fraction,[10]; 10 µM,0.524
same,GR value,[11]; 0.0001 µM,0.903 GR
same,GR value,[11]; 0.0003162 µM,1.02 GR
same,GR value,[11]; 0.001 µM,0.972 GR
same,GR value,[11]; 0.003162 µM,0.84 GR
same,GR value,[11]; 0.01 µM,0.797 GR
same,GR value,[11]; 0.03162 µM,0.225 GR
same,GR value,[11]; 0.1 µM,-0.325 GR
same,GR value,[11]; 0.3162 µM,-0.547 GR
same,GR value,[11]; 1 µM,-0.653 GR
same,GR value,[12]; 0.0003162 µM,0.834 GR
same,GR value,[12]; 0.001 µM,0.534 GR
same,GR value,[12]; 0.003162 µM,0.172 GR
same,GR value,[12]; 0.01 µM,-0.145 GR
same,GR value,[12]; 0.03162 µM,-0.318 GR
same,GR value,[12]; 0.1 µM,-0.388 GR
same,GR value,[12]; 0.3162 µM,-0.506 GR
same,GR value,[12]; 1 µM,-0.585 GR
same,GR value,[12]; 3.162 µM,-0.614 GR
